According to patent publication US12054744B2, “NK cells exhibiting an adaptive phenotype and methods for preparing and for using” (Regents of the University of Minnesota, priority 2015, dated 2024):

Tests used:
Type in all cases: cell-based, human
CD155 on monocytes = assay: ROS induction in monocytes by H2O2, staining for ROS, CD112 and CD155; details: H2O2 250 μM
Protocol: (§1) MDSCs were induced from healthy blood donor PBMC with IL-6 (10 ng/mL) and GM-CSF (10 ng/mL) for 7 days, bead-depleted for HLA-DR, and enriched for CD33. FIG. 13A. MDSCs and freshly isolated monocytes were stained for the antigens shown. One representative example from independent experiments is shown. FIG. 13B. Induced MDSCs were stained for CD155 and analyzed by flow cytometry following overnight treatment with superoxide dismutase (SOD, 200 IU/mL), arginase inhibitor (a-ARG, arginase inhibitor N(ω)-hydroxy-nor-L-arginine, 500 μM), ROS scavenger (Catalase, 200 international units per milliliter (IU/mL)), blocking antibodies against TGF-β (10 μg/mL), iNOS inhibitor (aiNOS, NG-monomethyl-1-arginine, 500 micromolar (μM)), or left untreated. Pooled (n=4) data is shown as mean±SEM, and statistical analysis were done using the Student's t-test. FIG. 13C. Unstimulated monocytes and MDSCs were stained for total ROS and analyzed by flow cytometry. FIG. 13D. Unstimulated or H2O2 (250 μM) monocytes and unstimulated MDSCs were stained for total ROS, CD112, and CD155 and analyzed by flow cytometry. Cells double positive for ROS and CD112 or CD155 are shown. One representative donor of six is shown. One representative isotype control is shown for all groups for simplicity as individual controls were similar between conditions. […]

[1] = system: PLZF expression in cord blood-derived CD56^dim NK cells; assay: Intracellular PLZF staining of cord blood-derived CD56^dim NK cells after 14 days in culture; details: high-dose IL-15, IL-21 where added
Protocol: FIG. 6A. FACS plots of intracellular PLZF expression in cord blood-derived CD56^dim NK cells from a representative donor after 14 days in the indicated culture conditions. FIG. 6B. Cumulative data showing the percentage of PLZF″ NK cells after 14 days in each culture condition from 6 donors. Two independent experiments were performed. Error bars represent SEM.
Mononuclear cells were isolated from whole cord blood by density gradient centrifugation. T cells and B cells were depleted by positive magnetic selection using anti-CD3 and anti-CD19 microbeads, respectively. CD3/CD19-depleted cells were then added to irradiated OP9 cells at a concentration of 5×10^5 cells/well and cultured for 14 days in RPMI media+10% FBS supplemented with either 1 ng/mL IL-15 or 10 ng/mL IL-15 with or without 50 ng/mL IL-21.
Cord blood-derived NK cells were analyzed before culture and after 7 and 14 days of culture by fluorescence activated cell sorting (FACS) using the following extracellular and intracellular antibodies: BV785-conjugated anti-CD3 (BioLegend, San Diego, CA), PE-Cy7-conjugated anti-CD56 (BioLegend, San Diego, CA), BV605-conjugated anti-CD57 (BioLegend, San Diego, CA), APC-conjugated SYK (eBioscience, San Diego, CA), and PE-conjugated anti-PLZF (BD Biosciences, San Jose, CA).
Transcriptional silencing of the transcription factor promyelocytic leukemia zinc finger (PLZF) is a hallmark of adaptive NK cells that expand in response to CMV infection (Schlums et al. Immunity. 2015; 42(3):443-456). Intracellular staining for PLZF was performed in NK cells from freshly isolated mononuclear cells and from cells that were cultured for 14 days in vitro. Freshly isolated CD56^dimSYK^− NK cells from cord blood were predominantly PLZF-positive (99.3%±0.10). […] Therefore, IL-21 drives down PLZF expression in CD56^dimSYK^− NK cells, causing these cells to acquire adaptive characteristics (FIG. 6).

K562 = assay: Chromium (51Cr) release assay against K562; details: anti-TIGIT 10 ug/mL or catalase 200 IU/mL
Protocol: Purified NK cells from healthy blood donors were co-cultured with autologous MDSCs or freshly isolated monocytes at a 2:1 ratio in the presence of IL-15 (10 ng/mL) and in the presence or absence of blocking antibodies against TIGIT (10 μg/mL), or catalase (200 IU/mL) for 5 days. Cells were then washed, rested for 4 hours, stimulated for 10 and 30 min with anti-CD16, and stained for pZAP/Syk or pERK1/2 respectively. Representative (FIG. 14A) or cumulative (FIG. 14B) data are shown from 3 independent experiments as mean±SEM. Statistical analysis was done using the Student's t-test. FIG. 14C. […]
Given the strong suppressive effect of TIGIT engagement on conventional NK cell function and proliferation, the CD16 induced signaling interaction with TIGIT in NK cells co-cultured with MDSC was analyzed. […]
Following 5 days of co-culture with monocytes or MDSCs in the presence or absence of blocking antibodies against TIGIT (10 ug/mL) or ROS scavenger catalase (200 IU/mL), NK cell cytotoxicity was analyzed by chromium (51 Cr) release assays (4 hours) against K562 (ATCC, Manassas, VA) cells at a 5:1-2.5:1 effector:target ratios. 51 Cr release was measured by a γ scintillation counter (Perkin Elmer, Waltham, MA), and specific target lysis was determined.

pZAP70/Syk and pERK1/2 = assay: Phosflow of pZAP70/Syk and pERK1/2 in NK cells co-cultured with MDSCs; details: NK cells co-cultured with MDSCs 5 days; anti-TIGIT 10 ug/mL or catalase 200 IU/mL; anti-CD16 stimulation
Protocol: Purified NK cells from healthy blood donors were co-cultured with autologous MDSCs or freshly isolated monocytes at a 2:1 ratio in the presence of IL-15 (10 ng/mL) and in the presence or absence of blocking antibodies against TIGIT (10 μg/mL), or catalase (200 IU/mL) for 5 days. Cells were then washed, rested for 4 hours, stimulated for 10 and 30 min with anti-CD16, and stained for pZAP/Syk or pERK1/2 respectively. Representative (FIG. 14A) or cumulative (FIG. 14B) data are shown from 3 independent experiments as mean±SEM. Statistical analysis was done using the Student's t-test. FIG. 14C. NK cells from monocyte and MDSC co-cultures in the presence or absence of anti-TIGIT or catalase were washed and incubated with 51 Cr-labeled K562 for 4 hours to assess NK cell cytotoxicity. Representative data from 3 independent experiments is shown as mean±SEM.
Given the strong suppressive effect of TIGIT engagement on conventional NK cell function and proliferation, the CD16 induced signaling interaction with TIGIT in NK cells co-cultured with MDSC was analyzed. […] To investigate whether blocking TIGIT or ROS could recover the function of NK cells cultured with MDSCs in cytotoxicity assays, NK cells were cultured with either monocytes or MDSCs were pre-treated with TIGIT blockade or catalase, washed, and then incubated with 51 Cr-labeled K562 cells. […]

CD155 on MDSCs = assay: CD155 staining of induced MDSCs after overnight treatment with inhibitors of MDSC pathways; details: catalase 200 IU/mL overnight
Protocol: as §1, with “FIG. 13C.” left out, “FIG. 13D.” left out, “cytometry.” for “cytometry. Cells double positive for ROS and CD112 or CD155 are shown. One representative donor of six is shown. One representative isotype control is shown for all groups for simplicity as individual controls were similar between conditions.”
Purified NK cells or MDS PBMC (FIG. 17) cultured with monocytes or MDSCs for different time points and with different stimuli were resuspended in staining buffer (PBS containing 0.5% human AB serum) and stained with fluorochrome-conjugated antibodies (Table IV). […] All cells were acquired by LSRII and analyzed by FlowJo. […]

OO [H2O2]
expression of CD155 in ROS^+ monocytes (CD155 on monocytes): induce the expression of CD155

IL-21: cytokine added at 50 ng/mL to IL-15 cultures
decrease in PLZF expression (percentage of PLZF-negative NK cells) ([1]; CD56^dimCD57^+SYK^+ NK cells): 12.13%±2.43
decrease in PLZF expression (percentage of PLZF-negative NK cells) ([1]; CD56^dimCD57^+SYK^− NK cells): 66.0%±8.86
decrease in PLZF expression (percentage of PLZF-negative NK cells) ([1]; CD56^dimCD57^−SYK^+ NK cells): 14.92%±1.80
decrease in PLZF expression (percentage of PLZF-negative NK cells) ([1]; CD56^dimCD57^−SYK^− NK cells): 35.82%±7.02

B1: catalase: ROS scavenger catalase (Sigma-Aldrich), 200 IU/mL (protein, UniProt P00432 2-527, looked up)
Catalase: ADNRDPASDQMKHWKEQRAAQKPDVLTTGGGNPVGDKLNSLTVGPRGPLLVQDVVFTDEMAHFDRERIPERVVHAKGAGAFGYFEVTHDITRYSKAKVFEHIGKRTPIAVRFSTVAGESGSADTVRDPRGFAVKFYTEDGNWDLVGNNTPIFFIRDALLFPSFIHSQKRNPQTHLKDPDMVWDFWSLRPESLHQVSFLFSDRGIPDGHRHMNGYGSHTFKLVNANGEAVYCKFHYKTDQGIKNLSVEDAARLAHEDPDYGLRDLFNAIATGNYPSWTLYIQVMTFSEAEIFPFNPFDLTKVWPHGDYPLIPVGKLVLNRNPVNYFAEVEQLAFDPSNMPPGIEPSPDKMLQGRLFAYPDTHRHRLGPNYLQIPVNCPYRARVANYQRDGPMCMMDNQGGAPNYYPNSFSAPEHQPSALEHRTHFSGDVQRFNSANDDNVTQVRTFYLKVLNEEQRKRLCENIAGHLKDAQLFIQKKAVKNFSDVHPEYGSRIQALLDKYNEEKPKNAVHTYVQHGSHLSAREKANL
NK cell cytotoxicity against K562, NK cells cultured alone (K562): Neither anti-TIGIT nor catalase had any effect
NK cell cytotoxicity against K562 after co-culture with MDSCs (K562; 5 days, 4 hours 51Cr release): completely reversed the suppressive effect
phosphorylation of ZAP70/Syk and ERK1/2 (pZAP70/Syk and pERK1/2): increased the phosphorylation
decrease in the expression of CD155 on MDSCs (CD155 on MDSCs): 55%±23
